# Calls of active or inactive are those of the source.
# Columns and labels:
# [1] = target: T1, RNA-binding protein pos-1 (Caenorhabditis elegans, UniProt G5EF15); test: inhibitors of POS-1/mex-3 RNA binding, dose response, biochemical, fluorescence polarization (AID 1964);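 also: purified POS-1 fused to maltose binding protein made in E. coli; potency of compounds blocking POS-1 binding to fluorescent RNA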
# T1 sequence (G5EF15 whole entry): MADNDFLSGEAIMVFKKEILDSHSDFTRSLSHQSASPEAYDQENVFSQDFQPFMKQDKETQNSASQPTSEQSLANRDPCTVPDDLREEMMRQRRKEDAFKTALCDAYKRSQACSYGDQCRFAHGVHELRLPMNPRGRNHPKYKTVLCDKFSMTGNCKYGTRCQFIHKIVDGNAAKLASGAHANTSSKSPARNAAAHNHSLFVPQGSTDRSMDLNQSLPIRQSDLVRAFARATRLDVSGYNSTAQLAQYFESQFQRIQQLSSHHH
# [2] = target: T2, Zinc finger protein mex-5 (Caenorhabditis elegans, UniProt Q9XUB2); test: MEX-5/TCR-2 RNA interaction inhibitors, dose response, biochemical, C. elegans, fluorescence polarization (AID 1960)
# T2 sequence (Q9XUB2 whole entry): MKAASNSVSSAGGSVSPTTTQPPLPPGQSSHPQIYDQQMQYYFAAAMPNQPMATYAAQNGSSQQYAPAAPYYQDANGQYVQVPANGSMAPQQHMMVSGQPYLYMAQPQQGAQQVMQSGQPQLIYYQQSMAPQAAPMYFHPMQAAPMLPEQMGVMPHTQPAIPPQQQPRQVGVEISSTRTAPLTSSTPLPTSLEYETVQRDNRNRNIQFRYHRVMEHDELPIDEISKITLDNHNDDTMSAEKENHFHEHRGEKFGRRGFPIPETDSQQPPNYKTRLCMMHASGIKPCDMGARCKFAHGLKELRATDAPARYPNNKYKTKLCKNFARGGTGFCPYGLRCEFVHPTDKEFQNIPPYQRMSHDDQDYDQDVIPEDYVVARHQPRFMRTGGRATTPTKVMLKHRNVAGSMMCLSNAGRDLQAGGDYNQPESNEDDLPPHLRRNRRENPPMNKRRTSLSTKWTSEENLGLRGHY
# [3] = target: T3, Protein skinhead-1 (Caenorhabditis elegans, UniProt P34707); assay type: functional
# T3 sequence (P34707 whole entry): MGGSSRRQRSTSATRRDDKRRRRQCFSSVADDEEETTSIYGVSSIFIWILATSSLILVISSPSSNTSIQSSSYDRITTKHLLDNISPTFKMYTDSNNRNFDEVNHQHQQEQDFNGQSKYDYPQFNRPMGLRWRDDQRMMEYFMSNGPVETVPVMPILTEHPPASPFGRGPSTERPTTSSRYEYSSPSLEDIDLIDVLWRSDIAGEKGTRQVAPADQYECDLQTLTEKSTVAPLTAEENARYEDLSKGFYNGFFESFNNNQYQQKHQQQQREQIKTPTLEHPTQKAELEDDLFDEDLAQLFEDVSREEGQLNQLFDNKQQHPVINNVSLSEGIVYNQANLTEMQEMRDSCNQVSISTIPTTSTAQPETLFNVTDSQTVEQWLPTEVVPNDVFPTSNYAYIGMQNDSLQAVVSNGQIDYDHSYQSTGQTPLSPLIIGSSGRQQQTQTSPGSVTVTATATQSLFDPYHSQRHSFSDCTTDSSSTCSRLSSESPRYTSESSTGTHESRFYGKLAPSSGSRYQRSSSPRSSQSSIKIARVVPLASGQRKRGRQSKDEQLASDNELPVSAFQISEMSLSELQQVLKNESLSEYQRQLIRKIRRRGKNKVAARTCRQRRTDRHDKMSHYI
# [4] = target: T4, Oxysterols receptor LXR-beta (Homo sapiens, UniProt P55055); assay type: functional, cell-based;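 also: Cell-based luminescence dose-response assay of agonist activity at LXR, run as a confirmatory counterscreen to a daf-12 agonist screen; HEK293 cells with Gal4-LXR fusion and GAL4-driven luciferase reporter; agonist potency from rising luciferase signal of a Gal4-LXR reporter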
# T4 sequence (P55055 whole entry): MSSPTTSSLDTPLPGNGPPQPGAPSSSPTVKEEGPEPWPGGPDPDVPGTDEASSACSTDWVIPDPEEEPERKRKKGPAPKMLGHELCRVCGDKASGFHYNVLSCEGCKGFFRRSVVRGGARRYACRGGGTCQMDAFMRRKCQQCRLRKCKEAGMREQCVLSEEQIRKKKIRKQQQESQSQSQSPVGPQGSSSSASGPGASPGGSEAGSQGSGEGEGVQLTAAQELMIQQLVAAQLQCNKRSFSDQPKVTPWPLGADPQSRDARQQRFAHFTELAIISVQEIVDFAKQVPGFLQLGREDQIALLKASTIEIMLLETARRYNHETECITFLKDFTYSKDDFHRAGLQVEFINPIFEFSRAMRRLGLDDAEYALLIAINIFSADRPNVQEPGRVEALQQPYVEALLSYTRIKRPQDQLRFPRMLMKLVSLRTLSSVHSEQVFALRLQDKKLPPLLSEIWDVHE
# [5] = cells
# [6] = target: Peroxisome proliferator-activated receptor gamma/Nuclear receptor coactivator 2 (Homo sapiens, UniProt P37231); assay type: functional;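 also: agonist potency for raising coactivator recruitment to the receptor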
# Chain of Peroxisome proliferator-activated receptor gamma/Nuclear receptor coactivator 2 (P37231 whole entry): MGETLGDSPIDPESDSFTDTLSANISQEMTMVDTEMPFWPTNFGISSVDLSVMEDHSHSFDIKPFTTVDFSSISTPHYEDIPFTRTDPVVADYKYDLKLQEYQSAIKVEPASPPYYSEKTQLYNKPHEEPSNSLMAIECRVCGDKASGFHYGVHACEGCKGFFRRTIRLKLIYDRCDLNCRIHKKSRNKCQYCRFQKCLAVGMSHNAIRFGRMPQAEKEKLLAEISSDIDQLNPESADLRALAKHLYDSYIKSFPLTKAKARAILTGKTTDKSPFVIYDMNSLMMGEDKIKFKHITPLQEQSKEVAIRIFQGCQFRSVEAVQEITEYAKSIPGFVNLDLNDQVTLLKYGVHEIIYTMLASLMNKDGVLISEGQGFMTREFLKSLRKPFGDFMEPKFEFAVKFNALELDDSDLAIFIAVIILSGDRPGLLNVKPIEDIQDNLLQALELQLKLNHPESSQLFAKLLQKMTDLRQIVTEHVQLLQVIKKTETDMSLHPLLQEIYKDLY
# Chain of Peroxisome proliferator-activated receptor gamma/Nuclear receptor coactivator 2 (Q15596 whole entry, further chain): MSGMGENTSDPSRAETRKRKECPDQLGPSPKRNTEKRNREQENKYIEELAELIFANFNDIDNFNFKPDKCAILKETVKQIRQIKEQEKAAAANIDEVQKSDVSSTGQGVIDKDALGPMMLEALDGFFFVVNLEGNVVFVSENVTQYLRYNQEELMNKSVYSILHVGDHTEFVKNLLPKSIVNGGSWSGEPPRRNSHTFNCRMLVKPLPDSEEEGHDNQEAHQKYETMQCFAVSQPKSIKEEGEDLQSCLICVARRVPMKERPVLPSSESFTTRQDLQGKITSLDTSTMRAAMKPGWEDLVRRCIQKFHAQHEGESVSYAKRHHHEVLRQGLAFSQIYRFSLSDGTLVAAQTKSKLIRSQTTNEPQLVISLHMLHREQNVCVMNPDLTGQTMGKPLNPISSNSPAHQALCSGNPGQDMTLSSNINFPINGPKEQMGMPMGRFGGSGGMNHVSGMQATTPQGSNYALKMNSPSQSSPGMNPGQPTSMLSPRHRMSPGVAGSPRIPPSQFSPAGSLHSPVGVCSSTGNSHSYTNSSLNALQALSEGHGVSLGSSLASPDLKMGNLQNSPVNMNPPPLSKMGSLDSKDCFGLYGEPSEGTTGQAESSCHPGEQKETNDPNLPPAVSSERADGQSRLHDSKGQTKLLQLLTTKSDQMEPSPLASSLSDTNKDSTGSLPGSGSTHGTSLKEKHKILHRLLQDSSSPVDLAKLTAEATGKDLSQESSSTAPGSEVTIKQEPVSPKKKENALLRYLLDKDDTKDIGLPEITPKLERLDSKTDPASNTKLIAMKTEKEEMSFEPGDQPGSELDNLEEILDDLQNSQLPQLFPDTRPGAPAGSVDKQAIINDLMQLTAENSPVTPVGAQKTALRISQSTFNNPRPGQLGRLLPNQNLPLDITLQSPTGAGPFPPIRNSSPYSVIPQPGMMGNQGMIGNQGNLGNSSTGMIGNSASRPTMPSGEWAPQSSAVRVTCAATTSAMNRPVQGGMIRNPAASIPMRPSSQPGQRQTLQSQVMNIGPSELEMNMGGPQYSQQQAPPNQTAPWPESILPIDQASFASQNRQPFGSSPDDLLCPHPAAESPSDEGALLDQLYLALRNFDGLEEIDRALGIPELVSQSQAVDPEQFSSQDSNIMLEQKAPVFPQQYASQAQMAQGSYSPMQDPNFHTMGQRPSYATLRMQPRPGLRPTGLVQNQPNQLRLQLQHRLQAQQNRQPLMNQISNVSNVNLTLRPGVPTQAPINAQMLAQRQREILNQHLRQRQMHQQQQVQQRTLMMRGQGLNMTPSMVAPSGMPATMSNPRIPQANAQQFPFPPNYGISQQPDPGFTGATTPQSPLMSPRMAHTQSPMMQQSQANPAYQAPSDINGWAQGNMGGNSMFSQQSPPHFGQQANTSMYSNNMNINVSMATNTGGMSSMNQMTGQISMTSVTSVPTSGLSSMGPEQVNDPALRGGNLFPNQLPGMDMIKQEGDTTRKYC
# [7] = target: Peroxisome proliferator-activated receptor gamma/Nuclear receptor coactivator 1 (Homo sapiens, UniProt P37231); assay type: functional;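 also: agonist potency as compounds enhance coactivator SRC-1 recruitment to PPARgamma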
# [8] = target: Peroxisome proliferator-activated receptor gamma/Nuclear receptor coactivator 3 (Homo sapiens, UniProt P37231); assay type: functional;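 also: agonist potency for raising coactivator recruitment to the receptor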
# Chain of Peroxisome proliferator-activated receptor gamma/Nuclear receptor coactivator 3 (P37231 whole entry): as the sequence (P37231 whole entry) above
# Chain of Peroxisome proliferator-activated receptor gamma/Nuclear receptor coactivator 3 (Q9Y6Q9 whole entry, further chain): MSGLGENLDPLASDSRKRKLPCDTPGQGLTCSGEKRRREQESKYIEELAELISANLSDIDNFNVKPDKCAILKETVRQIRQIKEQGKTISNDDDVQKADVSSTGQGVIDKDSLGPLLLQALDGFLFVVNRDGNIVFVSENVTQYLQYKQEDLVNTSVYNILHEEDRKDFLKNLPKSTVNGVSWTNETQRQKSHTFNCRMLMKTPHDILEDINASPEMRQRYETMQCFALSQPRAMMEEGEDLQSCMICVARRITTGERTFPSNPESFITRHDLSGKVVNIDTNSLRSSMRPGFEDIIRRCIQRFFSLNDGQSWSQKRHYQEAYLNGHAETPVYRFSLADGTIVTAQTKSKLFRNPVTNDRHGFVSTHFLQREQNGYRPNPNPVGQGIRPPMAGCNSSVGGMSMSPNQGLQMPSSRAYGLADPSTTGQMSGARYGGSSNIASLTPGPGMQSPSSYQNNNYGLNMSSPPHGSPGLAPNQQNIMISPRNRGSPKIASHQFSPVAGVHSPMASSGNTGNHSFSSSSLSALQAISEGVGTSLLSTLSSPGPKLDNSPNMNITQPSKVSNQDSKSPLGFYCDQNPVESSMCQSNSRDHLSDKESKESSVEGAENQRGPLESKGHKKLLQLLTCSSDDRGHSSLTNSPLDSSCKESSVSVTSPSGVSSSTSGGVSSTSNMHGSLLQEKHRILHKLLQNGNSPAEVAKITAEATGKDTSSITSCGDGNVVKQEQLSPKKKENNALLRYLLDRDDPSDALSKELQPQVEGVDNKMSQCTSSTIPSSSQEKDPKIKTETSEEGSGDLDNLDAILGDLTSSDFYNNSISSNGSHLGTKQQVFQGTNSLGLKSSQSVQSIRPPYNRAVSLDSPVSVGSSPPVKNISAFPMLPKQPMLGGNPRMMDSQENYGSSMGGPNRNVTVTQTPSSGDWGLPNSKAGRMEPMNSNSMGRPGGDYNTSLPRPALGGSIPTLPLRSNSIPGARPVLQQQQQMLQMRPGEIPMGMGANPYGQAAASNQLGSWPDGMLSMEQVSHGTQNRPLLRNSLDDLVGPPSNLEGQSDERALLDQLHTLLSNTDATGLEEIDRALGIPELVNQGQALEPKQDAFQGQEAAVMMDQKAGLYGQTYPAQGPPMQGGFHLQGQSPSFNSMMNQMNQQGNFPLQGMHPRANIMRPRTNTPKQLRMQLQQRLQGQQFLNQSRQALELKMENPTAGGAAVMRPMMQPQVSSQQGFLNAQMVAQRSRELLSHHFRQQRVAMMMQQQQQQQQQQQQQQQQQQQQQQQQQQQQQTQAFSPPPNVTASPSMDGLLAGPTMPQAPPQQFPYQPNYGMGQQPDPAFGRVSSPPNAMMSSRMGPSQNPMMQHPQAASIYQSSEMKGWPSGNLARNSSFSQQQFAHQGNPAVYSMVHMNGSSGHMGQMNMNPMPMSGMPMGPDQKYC
# [9] = target: T5, ORF 73 (Human herpesvirus 8, UniProt O40947); test: inhibitors of C-LANA binding to LBS DNA, dose response, biochemical, fluorescence polarization, cherry-picked samples (AID 504725); design: species or system Human gammaherpesvirus 8;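 also: fluorescence polarization of a labeled DNA duplex reporting LANA DNA binding; potency is for inhibitors that block LANA binding to the DNA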
# T5 sequence (O40947 whole entry): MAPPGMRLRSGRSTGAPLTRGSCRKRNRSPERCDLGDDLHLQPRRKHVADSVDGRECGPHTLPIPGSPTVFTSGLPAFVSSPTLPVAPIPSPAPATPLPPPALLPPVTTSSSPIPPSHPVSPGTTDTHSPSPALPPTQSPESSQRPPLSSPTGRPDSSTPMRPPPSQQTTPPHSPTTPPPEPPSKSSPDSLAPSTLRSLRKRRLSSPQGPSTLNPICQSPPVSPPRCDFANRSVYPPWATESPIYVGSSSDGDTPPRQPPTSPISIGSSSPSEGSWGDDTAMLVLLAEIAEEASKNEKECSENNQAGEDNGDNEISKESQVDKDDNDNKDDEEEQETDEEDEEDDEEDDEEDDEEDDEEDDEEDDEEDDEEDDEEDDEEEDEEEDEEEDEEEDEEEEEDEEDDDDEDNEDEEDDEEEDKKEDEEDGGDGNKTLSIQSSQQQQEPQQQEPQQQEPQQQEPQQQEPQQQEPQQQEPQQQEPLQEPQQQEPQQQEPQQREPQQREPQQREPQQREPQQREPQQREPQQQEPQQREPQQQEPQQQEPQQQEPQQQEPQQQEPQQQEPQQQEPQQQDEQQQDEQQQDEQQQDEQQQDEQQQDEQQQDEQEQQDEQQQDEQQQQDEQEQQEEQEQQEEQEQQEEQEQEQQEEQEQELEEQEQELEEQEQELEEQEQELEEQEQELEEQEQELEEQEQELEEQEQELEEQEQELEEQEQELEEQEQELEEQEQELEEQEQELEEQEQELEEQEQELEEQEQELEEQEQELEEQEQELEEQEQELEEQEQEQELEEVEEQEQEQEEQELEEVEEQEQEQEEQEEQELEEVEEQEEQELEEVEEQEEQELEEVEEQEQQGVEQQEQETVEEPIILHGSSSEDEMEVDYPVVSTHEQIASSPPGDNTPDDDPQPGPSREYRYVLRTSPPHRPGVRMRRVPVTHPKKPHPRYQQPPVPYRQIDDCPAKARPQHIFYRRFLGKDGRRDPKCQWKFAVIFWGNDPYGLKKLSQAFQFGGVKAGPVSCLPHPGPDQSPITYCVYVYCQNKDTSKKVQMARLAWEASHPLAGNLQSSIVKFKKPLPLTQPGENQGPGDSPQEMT
# [10] = target: DNA dC->dU-editing enzyme APOBEC-3G (Homo sapiens, UniProt Q9HC16); test: Dose Response confirmation of small molecule APOBEC3G DNA Deaminase Inhibitors via a fluorescence-based single-stranded DNA deaminase assay. [Related pubchem assays (depositor defined):AID493012, AID493028]; assay type: functional
# [11] = cells; assay type: functional, cell-based
# [12] = target: T6, Nuclear receptor subfamily 0 group B member 1 (Homo sapiens, UniProt P51843); assay type: functional, cell-based;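 also: HEK293T cells transfected with SF-1 and DAX-1 plus StAR promoter luciferase reporter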
# T6 sequence (P51843 whole entry): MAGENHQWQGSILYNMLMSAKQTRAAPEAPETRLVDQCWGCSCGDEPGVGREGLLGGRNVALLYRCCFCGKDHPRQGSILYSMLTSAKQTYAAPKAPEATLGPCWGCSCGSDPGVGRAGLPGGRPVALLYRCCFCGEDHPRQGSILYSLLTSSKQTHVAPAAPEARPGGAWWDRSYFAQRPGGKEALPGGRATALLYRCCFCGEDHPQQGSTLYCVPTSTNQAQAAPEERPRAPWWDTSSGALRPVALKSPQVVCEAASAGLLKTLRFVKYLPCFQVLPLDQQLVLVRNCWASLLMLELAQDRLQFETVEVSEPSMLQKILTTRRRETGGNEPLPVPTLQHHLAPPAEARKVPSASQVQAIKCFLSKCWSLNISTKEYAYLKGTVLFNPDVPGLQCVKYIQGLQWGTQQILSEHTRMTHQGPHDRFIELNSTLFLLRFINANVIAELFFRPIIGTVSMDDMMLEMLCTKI
# [13] = target: Cytochrome P450 3A4 (Homo sapiens, UniProt P08684); conditions: Potency;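 also: confirmatory qHTS run detecting inhibitors and substrates of CYP3A4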
# [14] = target: Luciferin 4-monooxygenase (Photinus pyralis, UniProt P08659); test: firefly luciferase enzyme inhibitors, dose response, biochemical, luminescence (AID 1891)
# Chain of Luciferin 4-monooxygenase (P08659 whole entry): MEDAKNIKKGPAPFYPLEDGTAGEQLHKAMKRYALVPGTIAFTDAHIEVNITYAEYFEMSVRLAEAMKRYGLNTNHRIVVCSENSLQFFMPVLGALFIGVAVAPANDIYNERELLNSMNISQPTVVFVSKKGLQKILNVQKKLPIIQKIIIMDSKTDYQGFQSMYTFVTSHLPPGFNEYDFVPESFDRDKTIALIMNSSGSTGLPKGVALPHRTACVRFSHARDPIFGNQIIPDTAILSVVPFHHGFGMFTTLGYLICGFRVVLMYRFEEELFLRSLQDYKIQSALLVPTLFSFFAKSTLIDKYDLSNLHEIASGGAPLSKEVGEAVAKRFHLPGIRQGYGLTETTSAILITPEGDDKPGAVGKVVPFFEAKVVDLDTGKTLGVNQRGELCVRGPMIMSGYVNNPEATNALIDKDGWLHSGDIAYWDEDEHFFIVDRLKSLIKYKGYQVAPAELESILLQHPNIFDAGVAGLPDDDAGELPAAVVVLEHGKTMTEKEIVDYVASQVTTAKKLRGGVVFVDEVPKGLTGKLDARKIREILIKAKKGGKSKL
# [15] = Luminescence Cell-Based Dose Confirmation HTS to Identify Inhibitors of Platelet Dense Granule Release. [Related pubchem assays: 1663 (Primary HTS), 1678 (Summary of Project)]; assay type: functional
# [16] = A549 cell cytotoxicity, dose response, cytotoxicity control, plate reader, cherry-pick, antagonist series (AID 743412); assay type: functional, cell-based
# [17] = HepG2 cell cytotoxicity, dose response, cytotoxicity control, plate reader, cherry-pick, antagonist series (AID 743416); assay type: functional, cell-based
# [18] = LGR2 antagonists, dose response, cell-based, HEK293, CRE-luciferase reporter, cherry pick, set 2 (AID 743343); assay type: functional;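 also: transfected cells were stimulated with diluted bursicon conditioned medium after compound addition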
# [19] = MC4R antagonists, dose response, counter-screen for LGR2 antagonist project, cell-based, plate reader, cherry pick (AID 743444); assay type: functional;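 also: transfected HEK 293 cells stimulated with alpha-MSH peptide; potency of inhibitors of the alpha-MSH evoked signal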
# [20] = target: Albumin (Bos taurus, UniProt P02769); test: Counterscreen for inhibitors of T-cell receptor (TCR)-CD3 interaction: Fluorescence-based biochemical high throughput dose response assay to identify inhibitors of T-cell receptor (TCR)-CD3 interaction using a TAMRA-labeled BSA probe.; assay type: functional
# Chain of Albumin (P02769 whole entry): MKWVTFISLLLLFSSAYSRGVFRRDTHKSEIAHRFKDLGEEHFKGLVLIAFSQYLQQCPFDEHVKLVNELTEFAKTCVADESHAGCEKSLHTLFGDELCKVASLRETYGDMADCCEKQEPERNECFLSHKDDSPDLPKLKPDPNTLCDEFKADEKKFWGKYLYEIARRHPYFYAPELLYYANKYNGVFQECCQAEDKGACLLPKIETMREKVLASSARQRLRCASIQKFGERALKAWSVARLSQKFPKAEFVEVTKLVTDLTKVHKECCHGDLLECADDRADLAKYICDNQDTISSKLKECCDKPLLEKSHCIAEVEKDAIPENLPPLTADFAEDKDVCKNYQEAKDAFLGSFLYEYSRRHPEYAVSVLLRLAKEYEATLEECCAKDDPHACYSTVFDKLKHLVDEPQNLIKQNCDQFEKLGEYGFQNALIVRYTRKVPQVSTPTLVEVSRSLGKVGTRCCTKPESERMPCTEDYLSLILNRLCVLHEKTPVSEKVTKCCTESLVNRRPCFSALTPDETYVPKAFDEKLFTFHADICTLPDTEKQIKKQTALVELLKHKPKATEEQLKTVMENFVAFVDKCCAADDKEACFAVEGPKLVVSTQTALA
# [21] = target: T7, Caspase-6 (Homo sapiens, UniProt P55212); test: human caspase-6 inhibitors, dose response, biochemical, VEID-R110 fluorescence, cherry-pick (AID 720632)
# T7 sequence (P55212 whole entry): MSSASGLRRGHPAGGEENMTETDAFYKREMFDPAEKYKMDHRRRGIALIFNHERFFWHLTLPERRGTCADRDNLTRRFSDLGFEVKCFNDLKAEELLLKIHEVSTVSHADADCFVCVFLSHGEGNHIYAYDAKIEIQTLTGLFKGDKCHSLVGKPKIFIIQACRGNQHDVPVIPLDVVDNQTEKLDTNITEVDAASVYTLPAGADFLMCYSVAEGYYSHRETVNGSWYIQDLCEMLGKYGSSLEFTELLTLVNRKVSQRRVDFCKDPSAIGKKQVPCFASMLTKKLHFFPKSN
structure (smiles),measurement,setting,value
O=C(c1cccs1)c1ccc(-c2cccs2)s1,EC50,[1],215 µM (active)
same,EC50,[2],> 300 µM (not active)
same,IC50,[3],26.5 µM (active)
same,EC50,[4],> 67.5 µM (inactive)
same,EC50,[5],> 67.5 µM (inactive)
Cc1ccc(OCC(=O)NNC(=O)C(=O)NC(C)(C)C)cc1,EC50,[6],> 79.4 µM (not active)
same,EC50,[7],> 79.4 µM (not active)
same,EC50,[8],> 79.4 µM (not active)
CCn1c(SCc2nc(O)c3c(C)c(C(=O)O)sc3n2)nc2ccccc21,AC50,[9],32.2 µM (active)
CCN(CC)c1ccc(NC(=O)c2ccccn2)cc1S(=O)(=O)Nc1ccccc1OC,IC50,[10],69.2 µM (active)
Cc1ccc2[nH]c(CSc3nc(C)cc(C)c3C#N)nc2c1,EC50,[4],> 67.5 µM (inactive)
same,EC50,[5],> 67.5 µM (inactive)
CCOc1ccc(NC2=NN=C(c3cc(C)n(CC4CCCO4)c3C)CS2)cc1 (configuration not stated),EC50,[6],> 79.4 µM (not active)
same,EC50,[7],> 79.4 µM (not active)
same,EC50,[8],> 79.4 µM (not active)
"COc1ccc(-c2cc(=O)c3cc(OC)ccc3o2)cc1 [6,4'-DIMETHOXYFLAVONE]",IC50,[11],> 67.5 µM (inactive)
same,IC50,[12],> 67.5 µM (inactive)
same,AC50,[13],3.16 µM (inconclusive)
O=C(/C=C/Nc1ccc(F)cc1F)c1ccco1,EC50,[14],0.812 µM (active)
same,EC50,[15],4.36 µM (active)
same,IC50,[3],17 µM (active)
same,IC50,[11],> 67.5 µM (inactive)
same,IC50,[12],> 67.5 µM (inactive)
CC(C)c1nnc(NC(=O)c2ccc3c(c2)OCO3)s1,IC50,[11],> 67.6 µM (inactive)
same,IC50,[12],> 0.278 µM (active)
same,AC50,[16],> 52 µM (inactive)
same,AC50,[17],> 52 µM (inactive)
same,AC50,[18],4.95 µM (active)
same,AC50,[19],5.43 µM (active)
COc1ccc(Cn2c(-c3ccc(C)cc3)nc3c(c(=O)c4ccccc4n3C)c2=O)cc1,EC50,[6],> 79.4 µM (not active)
same,EC50,[7],> 79.4 µM (not active)
same,EC50,[8],> 79.4 µM (not active)
CC(=O)NNC(=S)NC(=O)c1ccc(C)cc1,IC50,[20],> 94 µM (inactive)
COCCn1c(C)cc(C(=O)CN2C(=O)NC3(CCCCCC3)C2=O)c1C,IC50,[11],> 67.5 µM (inactive)
same,IC50,[12],> 67.5 µM (inactive)
O=C(NNC(=O)c1ccccc1F)c1cccc(-n2cccc2)c1,IC50,[20],> 94 µM (inactive)
same,AC50,[21],1.2 µM (active)
